Test results from article PMC8304634, “Structure–Activity Relationships of the Antimalarial Agent Artemisinin 10. Synthesis and Antimalarial Activity of Enantiomers of rac-5β-Hydroxy-D-Secoartemisinin and Analogs: Implications Regarding the Mechanism of Action” (Molecules, 2021).
Values after ≈ are worked out from the molar mass of the structure shown. “Also recorded” adds a separate entry of the source.

Assays:
[1] = system: P. falciparum Sierra Leone (D-6) clone; assay: In vitro antimalarial pLDH assay, D-6 clone; type: cell-based; conditions: for IC50: Plasmodium falciparum, Erythrocyte, read-out: IC50 (ng/mL) D-6; for IC50 / IC50 (ng/mL) D-6: 72 h, parasitized red blood cells, pLDH readout, NA = Not active
Protocol: (§1) Artemisinin 1 and the analogs rac-2, 2a, 2b, 9–16, diastereomers 19a, 19b, 22 and 29 were tested in vitro in parasitized whole blood against drug-resistant strains of P. falciparum parasite clones D-6 and W-2 at The National Center for Natural Products Research (NCNPR) at The University of Mississippi using the parasite lactate dehydrogenase (pLDH) assay developed by Makler (Table 3). This assay is based on the ability of the pLDH enzyme of P. falciparum to reduce APAD to APADH. This reaction is carried out at a slow rate by human red blood cell LDH.
(§2) The formation of APADH was monitored colorimetrically by the addition of nitroblue tetrazolium which was reduced to a blue formazan product. Two P. falciparum malaria parasite clones, designated as Indochina (W-2) and Sierra Leone (D-6), were used in susceptibility testing. The W-2 clone is chloroquine-resistant and mefloquine-sensitive, while the D-6 clone is chloroquine-sensitive but mefloquine resistant. The relative potency values for these analogs were derived from the IC50 value for artemisinin (1) divided by their IC50 values (Table 3) and then adjusted for molecular weight differences by multiplication of the ratio of the molecular weight of the analog divided by the molecular weight of artemisinin. This approach to reporting activity was based in part on the fact that the analogs were tested on different occasions in which the IC50 for the control, artemisinin, had varied anywhere from 5 to 7 ng/mL based on parasitemia levels and clone.
(§3) Synthesized compounds were tested in vitro against two P. falciparum malaria parasite clones, designated as Indochina (W-2) and Sierra Leone (D-6). The W-2 clone is chloroquine resistant whereas the D-6 clone is a chloroquine-sensitive strain.
(§4) A suspension of red blood cells infected with W-2 or D-6 strain of P. falciparum that contains 2% parasitemia and 2% hematocrit in RPMI 1640 medium supplemented with 10% human serum and 60 µg/mL amikacin was dispensed into the wells of a 96-well flat-bottomed microtiter plate containing 10 µL of serially diluted test samples. The plates were incubated at 37 °C in an environment of 90% N2, 5% O2, and 5% CO2 for 72 h. Next, 100 µL aliquots of the Malstat reagent were added to each well of a new 96-well microtiter plate. The cultures were resuspended from the assay plate by mixing each well up and down several times. A total of 20 µL from each well of the resuspended culture was removed and added to the plate containing the Malstat reagent and the plate was incubated at r.t., for 30 min. Further, to each well, 20 µL of a NBT/PES (1:1) solution (2 and 0.1 mg/mL, respectively) were added. The plate was incubated in the dark for 1 h. The reaction was terminated by the addition of 100 µL of a 5% acetic acid solution. The […] plate was then read at 650 nm. Artemisinin and chloroquine were included in each assay as antimalarial drug controls. The IC50 values were computed from the dose–response curves using XLfit 4.2.

[2] = system: P. falciparum Indochina (W-2) clone; assay: In vitro antimalarial pLDH assay, W-2 clone; type: cell-based; conditions: for IC50: Plasmodium falciparum, Erythrocyte, read-out: IC50 (ng/mL) W-2; for IC50 / IC50 (ng/mL) W-2: 72 h, parasitized red blood cells, pLDH readout, NA = Not active
Protocol: as §1, §2, §3, §4

[3] = system: P. falciparum; assay: In vitro antimalarial pLDH assay, clone not distinguished in the statement; type: cell-based; conditions: for in vitro antimalarial activity (in words): W-2 and D-6 strains
Protocol: as §1, §2, §3, §4

[4] = 100 × [IC50 (artemisinin, control value)/IC50 (analog)] MW (analog)/MW(artemisinin)
[5] = as quoted in the Discussion, relative to artemisinin

Row | Structure (SMILES) | IC50 [1] [ng/mL] | IC50 [2] [ng/mL] | IC50 ([3]; Plasmodium falciparum, varied between test occasions, based on parasitemia levels and clone, read-out: IC50 for the control, artemisinin) [µg/mL] | melting point [°C] | IC50 (ng/mL) D-6 [1] [ng/mL] | IC50 (ng/mL) W-2 [2] [ng/mL] | Relative Activity D-6 [1, 4] | Relative Activity W-2 [2, 4] | in vitro antimalarial activity (in words) [3] | Relative Activity D-6 [1, 5] [%] | Relative Activity W-2 [2, 5] [%] | times more potent than the alcohol rac-2 or 2a ([3]; fold potency versus rac-2 or 2a)
1 | C[C@@H]1CC[C@H]2[C@@H](C)C(=O)O[C@@H]3O[C@@]4(C)CC[C@@H]1[C@]32OO4 [Compound 1, Artemisinin] | 7.05 (≈ 0.025 µM) | 5.08 (≈ 0.018 µM) | 0.005 to 0.007 (≈ 0.0177 to 0.0248 µM) | – | – | – | 100 | 100 | – | – | – | –
2 | CC(=O)OCC1(O)CCCCC1C(C)=O (stereo not shown) [Compound 29, (2-Acetyl-1-hydroxycyclohexyl)methyl acetate] | – | – | – | – | – | – | – | – | Neither 22 nor 29 possessed in vitro antimalarial activity; also recorded: no antimalarial activity | – | – | –
3 | CC12CC(OC(=O)C=Cc3ccccc3)C3CCCCC3(CO1)OO2 (stereo not shown) [Compound 13, 3-Methyloctahydro-1H-3,9a-epidioxybenzo[c]oxepin-5-yl cinnamate] | 131 (≈ 0.38 µM) | 148 (≈ 0.43 µM) | – | – | – | – | 13.14 | 8.37 | – | – | – | –
4 | CC(=O)OCC12CCCCC1C(O)CO2 (stereo not shown) [Compound 22, (3-Hydroxyhexahydrobenzofuran-7a(2H)-yl)methyl acetate] | – | – | – | 123 to 125 | – | – | – | – | Neither 22 nor 29 possessed in vitro antimalarial activity; also recorded: no antimalarial activity | – | – | –
5 | CC12CC(OC(=O)c3ccccc3)C3CCCCC3(CO1)OO2 (stereo not shown) [Compound 10, 3-Methyloctahydro-1H-3,9a-epidioxybenzo[c]oxepin-5-yl benzoate] | 153 (≈ 0.48 µM) | 121 (≈ 0.38 µM) | – | 100 to 102 | – | – | 10.40 | 9.50 | – | – | – | –
6 | COc1ccc(C(=O)OC2CC3(C)OCC4(CCCCC24)OO3)cc1 (stereo not shown) [Compound 12, 3-Methyloctahydro-1H-3,9a-epidioxybenzo[c]oxepin-5-yl 4-methoxybenzoate] | 115 (≈ 0.33 µM) | 167 (≈ 0.48 µM) | – | 155 to 157 | – | – | 15.13 | 7.50 | – | – | – | –
7 | CC12CC(OC(=O)c3ccc(Cl)cc3)C3CCCCC3(CO1)OO2 (stereo not shown) [Compound 14, 3-Methyloctahydro-1H-3,9a-epidioxybenzo[c]oxepin-5-yl 4-chlorobenzoate] | 145 (≈ 0.41 µM) | 120 (≈ 0.34 µM) | – | 110 to 112 | – | – | 12.18 | 10.58 | – | – | – | –
8 | CC12CC(OC(=O)c3ccc(F)cc3)C3CCCCC3(CO1)OO2 (stereo not shown) [Compound 11, 3-Methyloctahydro-1H-3,9a-epidioxybenzo[c]oxepin-5-yl 4-fluorobenzoate] | 80.7 (≈ 0.24 µM) | 97.5 (≈ 0.29 µM) | – | 88 to 90 | – | – | 20.81 | 12.41 | – | 20.81 | 12.41 | –
9 | CCCCC(=O)OC1CC2(C)OCC3(CCCCC13)OO2 (stereo not shown) [Compound 9, 3-Methyloctahydro-1H-3,9a-epidioxybenzo[c]oxepin-5-yl pentanoate] | 149 (≈ 0.5 µM) | 209 (≈ 0.7 µM) | – | – | – | – | 5.00 | 2.60 | – | – | – | –
10 | C=C1CC2(C)OCC3(CCCCC13)OO2 (stereo not shown) [Compound 16] | 345 (≈ 1.64 µM) | 346 (≈ 1.65 µM) | – | – | – | – | 3.05 | 2.18 | – | – | – | –
11 | CC12CC(=O)C3CCCCC3(CO1)OO2 (stereo not shown) [Compound 15, 3-Methylhexahydro-1H-3,9a-epidioxybenzo[c]oxepin-5(5aH)-one] | 31.8 (≈ 0.15 µM) | 23.3 (≈ 0.11 µM) | – | – | – | – | 33.30 | 32.72 | substantially improved over the corresponding alcohol 2 | 33.30 | 32.72 | 55–77
12 | CC12CC(O)C3CCCCC3(CO1)OO2 (racemic) [rac-2, 3-Methyloctahydro-1h-3,9a-epidioxybenzo[c]oxepin-5-ol] | 1720 (≈ 8.01 µM) | 1780 (≈ 8.3 µM) | – | 109 to 111 | – | – | – | 0.43 | – | 0.62 | 0.43 | –

The next lines start with results.

Row | IC50 [1] [ng/mL] | IC50 [2] [ng/mL] | IC50 ([3]; Plasmodium falciparum, varied between test occasions, based on parasitemia levels and clone, read-out: IC50 for the control, artemisinin) [µg/mL] | melting point [°C] | IC50 (ng/mL) D-6 [1] [ng/mL] | IC50 (ng/mL) W-2 [2] [ng/mL] | Structure (SMILES) | Relative Activity D-6 [1, 4] | Relative Activity W-2 [2, 4] | in vitro antimalarial activity (in words) [3] | Relative Activity D-6 [1, 5] [%] | Relative Activity W-2 [2, 5] [%] | times more potent than the alcohol rac-2 or 2a ([3]; fold potency versus rac-2 or 2a)
13 | – | – | – | 107 to 109 | – | – | C[C@]12C[C@H](O)[C@@H]3CCCC[C@@]3(CO1)OO2 [Compound 2b, (3S,5S,5aS,9aR)-3-methyloctahydro-1H-3,9a-epidioxybenzo[c]oxepin-5-ol] | – | – | devoid of antimalarial activity | – | – | –
14 | – | – | – | – | 150.64 (≈ 0.35 µM) | 357.24 (≈ 0.83 µM) | COC(C(=O)OC1CC2(C)OCC3(CCCCC13)OO2)(c1ccccc1)C(F)(F)F [Compound 19a, (3R,5R,5aR,9aS)-3-methyloctahydro-1H-3,9a-epidioxybenzo[c]oxepin-5-yl(R)-3,3,3-trifluoro-2-methoxy-2-phenylpropanoate] | 7.13 | 2.17 | – | – | – | –
15 | – | – | – | – | 2169.31 (≈ 5.04 µM) | 2255.40 (≈ 5.24 µM) | COC(C(=O)OC1CC2(C)OCC3(CCCCC13)OO2)(c1ccccc1)C(F)(F)F [Compound 19b, (3S,5S,5aS,9aR)-3-methyloctahydro-1H-3,9a-epidioxybenzo[c]oxepin-5-yl(R)-3,3,3-trifluoro-2-methoxy-2-phenylpropanoate] | 0.50 | 0.34 | – | 0.50 | 0.34 | –
16 | 1260 (≈ 5.86 µM) | 885 (≈ 4.13 µM) | – | 108 to 110 | – | – | C[C@@]12C[C@@H](O)[C@H]3CCCC[C@]3(CO1)OO2 [Compound 2a, (3R,5R,5aR,9aS)-3-methyloctahydro-1H-3,9a-epidioxybenzo[c]oxepin-5-ol] | 0.43 | 0.44 | Antimalarial activity resided with only the artemisinin-like enantiomer; also recorded: the only alcohol of the pair with antimalarial activity | 0.43 | 0.44 | –
